Assay results taken from PMC7265341, “Quantifying CDK inhibitor selectivity in live cells” (Nature Communications, 2020).

Tests used:
CDK17/Cyclin Y = CDK17/Cyclin Y (Homo sapiens, UniProt Q00537); assay: NanoBRET live-cell target engagement, CDK17-NanoLuc/Cyclin Y in HEK-293; assay type: binding; conditions: CDK17/Y, 10µM
CDK15/Cyclin Y = CDK15/Cyclin Y (Homo sapiens, UniProt Q96Q40); assay: NanoBRET live-cell target engagement, NanoLuc-CDK15/Cyclin Y in HEK-293; assay type: binding; conditions: CDK15/Y, 10µM
CDK7 = CDK7 (Homo sapiens, UniProt P50613); assay: NanoBRET live-cell target engagement, NanoLuc-CDK7 in HEK-293; assay type: binding; conditions: CDK7, 10µM
CDK12/Cyclin K = CDK12/Cyclin K (Homo sapiens, UniProt Q9NYV4); assay: NanoBRET live-cell target engagement, CDK12-NanoLuc/Cyclin K in HEK-293; assay type: binding; conditions: CDK12/K, 10µM
CDK3/Cyclin E1 = CDK3/Cyclin E1 (Homo sapiens, UniProt Q00526); assay: NanoBRET live-cell target engagement, CDK3-NanoLuc/Cyclin E1 in HEK-293; assay type: binding; conditions: CDK3/E1, 10µM
CDK10/Cyclin L2 = CDK10/Cyclin L2 (Homo sapiens, UniProt Q15131); assay: NanoBRET live-cell target engagement, CDK10-NanoLuc/Cyclin L2 in HEK-293; conditions: CDK10/L2, 10µM
CDK2/Cyclin E1 = CDK2/Cyclin E1 (Homo sapiens, UniProt P24941); assay: NanoBRET live-cell target engagement, CDK2-NanoLuc/Cyclin E1 in HEK-293; assay type: binding; conditions: CDK2/E1, 10µM
CDK14/Cyclin Y = CDK14/Cyclin Y (Homo sapiens, UniProt O94921); assay: NanoBRET live-cell target engagement, CDK14-NanoLuc/Cyclin Y in HEK-293; assay type: binding; conditions: CDK14/Y, 10µM
CDK20/Cyclin H = CDK20/Cyclin H (Homo sapiens, UniProt Q8IZL9); assay: NanoBRET live-cell target engagement, NanoLuc-CDK20/Cyclin H in HEK-293; assay type: binding; conditions: CDK20/H; 10µM
CDK13/Cyclin K = CDK13/Cyclin K (Homo sapiens, UniProt Q14004); assay: NanoBRET live-cell target engagement, CDK13-NanoLuc/Cyclin K in HEK-293; assay type: binding; conditions: CDK13/K, 10µM
CDK16/Cyclin Y = CDK16/Cyclin Y (Homo sapiens, UniProt Q00536); assay: NanoBRET live-cell target engagement, CDK16-NanoLuc/Cyclin Y in HEK-293; assay type: binding; conditions: CDK16/Y; 10µM
CDK9/Cyclin K = CDK9/Cyclin K (Homo sapiens, UniProt P50750); assay: NanoBRET live-cell target engagement, NanoLuc-CDK9/Cyclin K in HEK-293; assay type: binding; conditions: CDK9/K, 10µM
CDK11A/Cyclin L2 = target: T1, CDK11A/Cyclin L2 (Homo sapiens, UniProt Q9UQ88); assay: NanoBRET live-cell target engagement, CDK11A-NanoLuc/Cyclin L2 in HEK-293; assay type: binding; conditions: CDK11a/L2, 10µM
T1 sequence (Q9UQ88 1-783): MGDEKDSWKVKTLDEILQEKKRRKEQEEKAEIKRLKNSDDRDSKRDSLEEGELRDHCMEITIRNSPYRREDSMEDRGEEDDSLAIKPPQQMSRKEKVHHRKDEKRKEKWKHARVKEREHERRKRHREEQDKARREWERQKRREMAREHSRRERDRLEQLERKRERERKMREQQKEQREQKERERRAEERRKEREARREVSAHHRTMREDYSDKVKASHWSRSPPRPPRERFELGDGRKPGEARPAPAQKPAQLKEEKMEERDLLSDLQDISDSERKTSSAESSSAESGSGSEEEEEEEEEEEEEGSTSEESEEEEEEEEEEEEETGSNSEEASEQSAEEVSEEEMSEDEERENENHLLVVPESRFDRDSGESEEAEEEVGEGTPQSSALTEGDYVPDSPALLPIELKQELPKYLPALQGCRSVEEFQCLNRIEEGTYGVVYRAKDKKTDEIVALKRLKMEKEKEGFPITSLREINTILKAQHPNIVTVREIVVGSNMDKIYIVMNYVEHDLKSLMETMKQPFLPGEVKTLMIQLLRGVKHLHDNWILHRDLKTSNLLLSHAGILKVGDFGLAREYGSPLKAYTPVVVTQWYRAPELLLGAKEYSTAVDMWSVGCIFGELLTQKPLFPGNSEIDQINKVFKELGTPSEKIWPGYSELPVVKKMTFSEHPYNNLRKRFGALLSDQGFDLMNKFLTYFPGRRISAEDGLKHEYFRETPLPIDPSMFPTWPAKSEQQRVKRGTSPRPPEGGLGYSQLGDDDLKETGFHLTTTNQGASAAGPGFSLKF

CDK6/Cyclin D1 = CDK6/Cyclin D1 (Homo sapiens, UniProt Q00534); assay: NanoBRET live-cell target engagement, NanoLuc-CDK6/Cyclin D1 in HEK-293; assay type: binding; conditions: CDK6/D1, 10µM
CDK5/CDK5R1 = CDK5/CDK5R1 (Homo sapiens, UniProt Q00535); assay: NanoBRET live-cell target engagement, CDK5-NanoLuc/CDK5R1 in HEK-293; assay type: binding; conditions: CDK5/CDK5R1, 10µM
CDK1/Cyclin E1 = CDK1/Cyclin E1 (Homo sapiens, UniProt P06493); assay: NanoBRET live-cell target engagement, CDK1-NanoLuc/Cyclin E1 in HEK-293; assay type: binding; conditions: CDK1/E1, 10µM
CDK11B/Cyclin L2 = CDK11B/Cyclin L2 (Homo sapiens, UniProt P21127); assay: NanoBRET live-cell target engagement, CDK11B-NanoLuc/Cyclin L2 in HEK-293; assay type: binding; conditions: CDK11b/L2, 10µM
CDK18/Cyclin Y = CDK18/Cyclin Y (Homo sapiens, UniProt Q07002); assay: NanoBRET live-cell target engagement, CDK18-NanoLuc/Cyclin Y in HEK-293; assay type: binding; conditions: CDK18/Y, 10µM
CDK19/Cyclin C = CDK19/Cyclin C (Homo sapiens, UniProt Q9BWU1); assay: NanoBRET live-cell target engagement, NanoLuc-CDK19/Cyclin C in HEK-293; conditions: CDK19/C, 10µM
CDK8/Cyclin C = CDK8/Cyclin C (Homo sapiens, UniProt P49336); assay: NanoBRET live-cell target engagement, NanoLuc-CDK8/Cyclin C in HEK-293; assay type: binding; conditions: CDK8/C, 10µM
CDK4/Cyclin D1 = CDK4/Cyclin D1 (Homo sapiens, UniProt P11802); assay: NanoBRET live-cell target engagement, NanoLuc-CDK4/Cyclin D1 in HEK-293; assay type: binding; conditions: CDK4/D1, 10µM

Sequence of CDK3/Cyclin E1 (Q00526 whole entry): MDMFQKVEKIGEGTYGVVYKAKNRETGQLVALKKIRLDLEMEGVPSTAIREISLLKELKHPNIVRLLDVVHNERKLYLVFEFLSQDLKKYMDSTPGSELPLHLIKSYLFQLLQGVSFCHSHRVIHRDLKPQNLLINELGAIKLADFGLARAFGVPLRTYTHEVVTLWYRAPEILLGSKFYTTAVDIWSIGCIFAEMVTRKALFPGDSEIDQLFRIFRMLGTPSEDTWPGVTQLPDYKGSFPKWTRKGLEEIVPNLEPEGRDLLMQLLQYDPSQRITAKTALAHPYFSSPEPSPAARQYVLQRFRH
Sequence of CDK3/Cyclin E1 (P24864 whole entry partner): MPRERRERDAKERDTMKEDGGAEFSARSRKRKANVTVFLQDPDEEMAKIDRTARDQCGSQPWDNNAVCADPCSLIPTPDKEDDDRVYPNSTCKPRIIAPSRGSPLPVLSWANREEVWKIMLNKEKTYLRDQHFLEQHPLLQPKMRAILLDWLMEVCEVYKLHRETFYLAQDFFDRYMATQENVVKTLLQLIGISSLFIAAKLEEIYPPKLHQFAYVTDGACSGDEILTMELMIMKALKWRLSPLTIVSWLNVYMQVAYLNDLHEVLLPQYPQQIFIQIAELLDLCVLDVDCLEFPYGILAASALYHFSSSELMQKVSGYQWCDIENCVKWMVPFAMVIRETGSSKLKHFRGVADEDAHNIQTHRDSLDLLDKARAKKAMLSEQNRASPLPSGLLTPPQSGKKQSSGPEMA
Sequence of CDK14/Cyclin Y (O94921 whole entry): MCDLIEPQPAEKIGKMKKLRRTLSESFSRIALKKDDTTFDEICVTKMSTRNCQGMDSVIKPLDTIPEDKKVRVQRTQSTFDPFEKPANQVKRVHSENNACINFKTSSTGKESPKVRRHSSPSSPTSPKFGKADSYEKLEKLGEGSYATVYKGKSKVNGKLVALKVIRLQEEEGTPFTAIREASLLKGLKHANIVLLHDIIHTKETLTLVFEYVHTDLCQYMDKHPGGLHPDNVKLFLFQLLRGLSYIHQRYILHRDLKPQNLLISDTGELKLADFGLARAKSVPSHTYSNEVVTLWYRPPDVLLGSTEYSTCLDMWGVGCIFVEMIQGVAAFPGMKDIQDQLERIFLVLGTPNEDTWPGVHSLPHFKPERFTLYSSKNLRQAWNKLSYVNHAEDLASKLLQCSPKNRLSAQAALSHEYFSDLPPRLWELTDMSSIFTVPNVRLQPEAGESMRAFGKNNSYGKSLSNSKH
Sequence of CDK14/Cyclin Y (Q8ND76 whole entry partner): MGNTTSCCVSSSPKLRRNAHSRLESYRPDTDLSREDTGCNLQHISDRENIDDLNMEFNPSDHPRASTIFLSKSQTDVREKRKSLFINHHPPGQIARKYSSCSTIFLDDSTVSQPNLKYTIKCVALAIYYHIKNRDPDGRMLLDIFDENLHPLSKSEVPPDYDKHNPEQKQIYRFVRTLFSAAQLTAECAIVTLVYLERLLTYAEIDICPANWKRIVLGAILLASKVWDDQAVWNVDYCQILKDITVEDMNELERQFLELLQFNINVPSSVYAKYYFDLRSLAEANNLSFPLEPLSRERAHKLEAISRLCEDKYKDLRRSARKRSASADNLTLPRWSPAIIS
Sequence of CDK11B/Cyclin L2 (P21127 1-782 isoform P21127-2): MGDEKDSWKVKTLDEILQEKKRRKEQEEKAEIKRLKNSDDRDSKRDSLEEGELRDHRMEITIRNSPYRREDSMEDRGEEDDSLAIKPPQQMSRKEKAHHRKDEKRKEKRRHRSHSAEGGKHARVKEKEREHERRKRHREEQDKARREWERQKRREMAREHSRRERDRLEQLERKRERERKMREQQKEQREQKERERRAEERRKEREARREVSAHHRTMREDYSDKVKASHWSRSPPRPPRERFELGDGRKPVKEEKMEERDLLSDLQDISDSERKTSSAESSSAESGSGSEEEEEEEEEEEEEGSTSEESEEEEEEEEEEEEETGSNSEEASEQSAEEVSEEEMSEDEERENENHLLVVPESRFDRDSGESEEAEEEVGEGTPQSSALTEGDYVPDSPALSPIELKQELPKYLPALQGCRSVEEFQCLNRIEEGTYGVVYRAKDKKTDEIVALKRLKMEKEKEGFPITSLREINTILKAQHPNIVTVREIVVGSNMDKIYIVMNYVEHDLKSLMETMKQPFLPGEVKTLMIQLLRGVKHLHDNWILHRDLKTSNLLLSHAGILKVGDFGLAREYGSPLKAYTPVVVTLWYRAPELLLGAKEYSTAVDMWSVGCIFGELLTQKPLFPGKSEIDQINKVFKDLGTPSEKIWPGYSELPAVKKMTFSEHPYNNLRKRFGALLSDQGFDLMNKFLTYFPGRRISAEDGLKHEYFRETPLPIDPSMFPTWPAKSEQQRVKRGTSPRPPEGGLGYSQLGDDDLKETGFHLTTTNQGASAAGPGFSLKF
Sequence of CDK1/Cyclin E1 (P06493 whole entry): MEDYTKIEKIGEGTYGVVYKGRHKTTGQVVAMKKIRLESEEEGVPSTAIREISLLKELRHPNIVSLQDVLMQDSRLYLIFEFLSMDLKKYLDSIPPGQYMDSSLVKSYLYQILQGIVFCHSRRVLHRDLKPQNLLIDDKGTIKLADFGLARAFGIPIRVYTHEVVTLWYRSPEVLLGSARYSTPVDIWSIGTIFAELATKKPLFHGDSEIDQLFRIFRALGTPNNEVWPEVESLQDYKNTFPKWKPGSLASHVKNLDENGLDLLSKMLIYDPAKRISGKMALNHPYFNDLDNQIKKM
Sequence of CDK1/Cyclin E1 (P24864 whole entry partner): as the sequence (P24864 whole entry partner) above
Sequence of CDK12/Cyclin K (Q9NYV4 1-1481 isoform Q9NYV4-2): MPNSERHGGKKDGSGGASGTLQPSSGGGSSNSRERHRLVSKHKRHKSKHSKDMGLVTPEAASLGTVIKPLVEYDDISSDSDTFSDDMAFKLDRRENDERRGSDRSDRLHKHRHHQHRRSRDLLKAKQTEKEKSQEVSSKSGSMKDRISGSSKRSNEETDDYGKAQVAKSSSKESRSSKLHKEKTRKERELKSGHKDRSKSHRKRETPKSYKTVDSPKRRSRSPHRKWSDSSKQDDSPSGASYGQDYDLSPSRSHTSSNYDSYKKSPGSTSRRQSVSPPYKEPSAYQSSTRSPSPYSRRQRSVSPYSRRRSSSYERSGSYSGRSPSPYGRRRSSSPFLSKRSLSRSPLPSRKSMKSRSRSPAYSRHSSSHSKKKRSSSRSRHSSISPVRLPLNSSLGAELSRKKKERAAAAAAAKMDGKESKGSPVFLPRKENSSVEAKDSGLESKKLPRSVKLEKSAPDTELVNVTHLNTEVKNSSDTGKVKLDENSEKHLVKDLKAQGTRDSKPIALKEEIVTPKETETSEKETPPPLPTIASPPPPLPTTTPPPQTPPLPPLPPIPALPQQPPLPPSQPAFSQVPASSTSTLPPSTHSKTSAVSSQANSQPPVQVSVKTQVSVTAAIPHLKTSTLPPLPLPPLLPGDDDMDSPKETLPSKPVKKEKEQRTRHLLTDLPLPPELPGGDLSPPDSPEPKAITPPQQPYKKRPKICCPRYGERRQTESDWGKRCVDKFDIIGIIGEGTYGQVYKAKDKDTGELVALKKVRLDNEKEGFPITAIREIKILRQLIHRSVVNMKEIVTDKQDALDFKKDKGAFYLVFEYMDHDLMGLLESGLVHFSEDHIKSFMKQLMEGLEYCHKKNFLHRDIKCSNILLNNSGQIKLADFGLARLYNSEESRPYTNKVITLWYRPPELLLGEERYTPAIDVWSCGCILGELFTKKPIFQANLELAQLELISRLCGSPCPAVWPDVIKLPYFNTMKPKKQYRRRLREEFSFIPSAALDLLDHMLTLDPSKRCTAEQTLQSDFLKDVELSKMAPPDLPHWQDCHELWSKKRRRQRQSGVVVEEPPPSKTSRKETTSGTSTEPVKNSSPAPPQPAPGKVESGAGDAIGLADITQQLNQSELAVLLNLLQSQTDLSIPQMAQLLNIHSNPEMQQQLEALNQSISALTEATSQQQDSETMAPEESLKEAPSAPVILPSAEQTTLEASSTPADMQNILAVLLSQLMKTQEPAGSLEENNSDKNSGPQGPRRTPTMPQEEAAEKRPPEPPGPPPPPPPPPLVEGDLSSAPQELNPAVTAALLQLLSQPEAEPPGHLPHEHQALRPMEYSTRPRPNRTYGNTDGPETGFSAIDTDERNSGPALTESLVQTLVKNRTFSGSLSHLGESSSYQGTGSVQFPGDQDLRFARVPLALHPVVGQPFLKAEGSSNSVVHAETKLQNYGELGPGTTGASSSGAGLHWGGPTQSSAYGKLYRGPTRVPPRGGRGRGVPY
Sequence of CDK12/Cyclin K (O75909 whole entry partner): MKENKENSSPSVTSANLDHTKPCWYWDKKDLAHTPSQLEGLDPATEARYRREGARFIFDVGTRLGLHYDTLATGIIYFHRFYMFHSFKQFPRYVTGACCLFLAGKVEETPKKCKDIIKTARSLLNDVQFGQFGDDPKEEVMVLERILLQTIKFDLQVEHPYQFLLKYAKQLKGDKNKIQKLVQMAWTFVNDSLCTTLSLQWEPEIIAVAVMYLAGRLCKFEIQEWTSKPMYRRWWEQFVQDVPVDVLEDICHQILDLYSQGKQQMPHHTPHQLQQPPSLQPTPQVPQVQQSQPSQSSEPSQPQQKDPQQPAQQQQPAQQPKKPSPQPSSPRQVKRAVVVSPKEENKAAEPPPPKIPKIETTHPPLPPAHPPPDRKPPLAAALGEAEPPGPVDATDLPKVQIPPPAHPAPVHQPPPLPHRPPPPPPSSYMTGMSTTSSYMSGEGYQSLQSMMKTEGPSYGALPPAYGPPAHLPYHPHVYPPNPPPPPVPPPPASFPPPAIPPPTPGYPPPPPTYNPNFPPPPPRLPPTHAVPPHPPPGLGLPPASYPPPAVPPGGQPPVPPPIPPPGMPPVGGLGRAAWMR

CCC(CO)Nc1nc(Nc2cccc(-c3ccccn3)c2)c2ncn(C(C)C)c2n1.Cl.O [(R) - DRF053]
Inhibition at 10µM (%) Replicate 1 (CDK17/Cyclin Y): 29.1% | Inhibition at 10µM (%) Replicate 2 (CDK17/Cyclin Y): 25.1% | Inhibition at 10µM (%) Average (CDK17/Cyclin Y; average of replicates): 27.1% | Inhibition at 10µM (%) Replicate 1 (CDK15/Cyclin Y): 25.0% | Inhibition at 10µM (%) Replicate 2 (CDK15/Cyclin Y): 29.8% | Inhibition at 10µM (%) Average (CDK15/Cyclin Y; average of replicates): 27.4% | Inhibition at 10µM (%) Replicate 1 (CDK7): 45.0% | Inhibition at 10µM (%) Replicate 2 (CDK7): 59.3% | Inhibition at 10µM (%) Average (CDK7; average of replicates): 52.2% | Inhibition at 10µM (%) Replicate 1 (CDK12/Cyclin K): 4.1% | Inhibition at 10µM (%) Replicate 2 (CDK12/Cyclin K): -13.6% | Inhibition at 10µM (%) Average (CDK12/Cyclin K; average of replicates): -4.7% | Inhibition at 10µM (%) Replicate 1 (CDK3/Cyclin E1): 72.1% | Inhibition at 10µM (%) Replicate 2 (CDK3/Cyclin E1): 71.8% | Inhibition at 10µM (%) Average (CDK3/Cyclin E1; average of replicates): 72.0% | Inhibition at 10µM (%) Replicate 1 (CDK10/Cyclin L2): 13.4% | Inhibition at 10µM (%) Replicate 2 (CDK10/Cyclin L2): 27.0% | Inhibition at 10µM (%) Average (CDK10/Cyclin L2; average of replicates): 20.2% | Inhibition at 10µM (%) Replicate 1 (CDK2/Cyclin E1): 75.6% | Inhibition at 10µM (%) Replicate 2 (CDK2/Cyclin E1): 76.1% | Inhibition at 10µM (%) Average (CDK2/Cyclin E1; average of replicates): 75.9% | Inhibition at 10µM (%) Replicate 1 (CDK14/Cyclin Y): 8.2% | Inhibition at 10µM (%) Replicate 2 (CDK14/Cyclin Y): 16.5% | Inhibition at 10µM (%) Average (CDK14/Cyclin Y; average of replicates): 12.3% | Inhibition at 10µM (%) Replicate 1 (CDK20/Cyclin H): 16.2% | Inhibition at 10µM (%) Replicate 2 (CDK20/Cyclin H): 18.8% | Inhibition at 10µM (%) Replicate 1 (CDK13/Cyclin K): 7.7% | Inhibition at 10µM (%) Replicate 2 (CDK13/Cyclin K): -21.5% | Inhibition at 10µM (%) Average (CDK13/Cyclin K; average of replicates): -6.9% | Inhibition at 10µM (%) Replicate 1 (CDK16/Cyclin Y): 15.7% | Inhibition at 10µM (%) Replicate 2 (CDK16/Cyclin Y): 16.9% | Inhibition at 10µM (%) Replicate 1 (CDK9/Cyclin K): 18.8% | Inhibition at 10µM (%) Replicate 2 (CDK9/Cyclin K): 27.7% | Inhibition at 10µM (%) Average (CDK9/Cyclin K; average of replicates): 23.2% | Inhibition at 10µM (%) Replicate 1 (CDK11A/Cyclin L2): 8.6% | Inhibition at 10µM (%) Replicate 2 (CDK11A/Cyclin L2): 33.3% | Inhibition at 10µM (%) Average (CDK11A/Cyclin L2; average of replicates): 21.0% | Inhibition at 10µM (%) Replicate 1 (CDK6/Cyclin D1): 6.0% | Inhibition at 10µM (%) Replicate 2 (CDK6/Cyclin D1): 6.7% | Inhibition at 10µM (%) Average (CDK6/Cyclin D1; average of replicates): 6.4% | Inhibition at 10µM (%) Replicate 1 (CDK5/CDK5R1): 69.5% | Inhibition at 10µM (%) Replicate 2 (CDK5/CDK5R1): 71.6% | Inhibition at 10µM (%) Average (CDK5/CDK5R1; average of replicates): 70.6% | Inhibition at 10µM (%) Replicate 1 (CDK1/Cyclin E1): 46.5% | Inhibition at 10µM (%) Replicate 2 (CDK1/Cyclin E1): 41.5% | Inhibition at 10µM (%) Average (CDK1/Cyclin E1; average of replicates): 44.0% | Inhibition at 10µM (%) Replicate 1 (CDK11B/Cyclin L2): 11.4% | Inhibition at 10µM (%) Replicate 2 (CDK11B/Cyclin L2): 7.8% | Inhibition at 10µM (%) Average (CDK11B/Cyclin L2; average of replicates): 9.6% | Inhibition at 10µM (%) Replicate 1 (CDK18/Cyclin Y): 37.9% | Inhibition at 10µM (%) Replicate 2 (CDK18/Cyclin Y): 40.9% | Inhibition at 10µM (%) Average (CDK18/Cyclin Y; average of replicates): 39.4% | Inhibition at 10µM (%) Replicate 1 (CDK19/Cyclin C): 16.0% | Inhibition at 10µM (%) Replicate 2 (CDK19/Cyclin C): -0.8% | Inhibition at 10µM (%) Average (CDK19/Cyclin C; average of replicates): 7.6% | Inhibition at 10µM (%) Replicate 1 (CDK8/Cyclin C): 6.6% | Inhibition at 10µM (%) Replicate 2 (CDK8/Cyclin C): -1.1% | Inhibition at 10µM (%) Average (CDK8/Cyclin C; average of replicates): 2.7% | Inhibition at 10µM (%) Replicate 1 (CDK4/Cyclin D1): 19.9% | Inhibition at 10µM (%) Replicate 2 (CDK4/Cyclin D1): 22.3% | Inhibition at 10µM (%) Average (CDK4/Cyclin D1; average of replicates): 21.1%
